# Test results reported in patent US20220389009A1, “SUBSTITUTED 1,6-NAPHTHYRIDINE INHIBITORS OF CDK5” (Goldfinch Bio, Inc., priority 2019, published 2022).
# Experiments:
# [1] = biological target: CDK5/p25 (Homo sapiens, UniProt Q00535); assay: CDK5 mobility shift assay (enzymatic activity of CDK5/p25); type: biochemical; conditions: for IC50: 0.154 nM CDK5/p25, FL peptide 29, 60 min at room temperature, read-out: CDK5 IC50; for CDK5/CDK2 specificity: fold more active against CDK5 than CDK2
# Summary of the method: (§1)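 Phosphorylation of 1.5 μM fluorescent peptide was read by microfluidic mobility shift and fitted to IC50 (4-parameter), normalized to no-compound and no-enzyme controls. CDK5/p25 ran at 0.154 nM with […] ATP for 60 min, using peptide 29. CDK2/CycA2 ran at 1.25 nM with 37 μM ATP for 120 min, using peptide 18. Both included a 30-min compound preincubation in pH 7.5 buffer.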
# [2] = biological target: CDK2/CycA2 (Homo sapiens, UniProt P24941); assay: CDK2 mobility shift assay (enzymatic activity of CDK2/CycA2); type: biochemical; conditions: 1.25 nM CDK2/CycA2, 37 μM ATP, FL Peptide 18, 120 min at room temperature; read-out: CDK2 IC50
# Summary of the method: as §1
# CDK5/p25, sequence (Q00535 whole entry): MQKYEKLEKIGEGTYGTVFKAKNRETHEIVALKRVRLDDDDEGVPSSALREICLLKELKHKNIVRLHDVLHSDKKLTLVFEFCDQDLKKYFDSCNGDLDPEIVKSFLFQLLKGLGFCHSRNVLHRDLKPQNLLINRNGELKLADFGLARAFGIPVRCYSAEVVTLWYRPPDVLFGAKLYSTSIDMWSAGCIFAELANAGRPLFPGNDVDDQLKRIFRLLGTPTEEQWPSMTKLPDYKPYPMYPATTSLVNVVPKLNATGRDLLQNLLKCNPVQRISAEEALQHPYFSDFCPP
# CDK5/p25, sequence (Q15078 99-307 partner limits assumed): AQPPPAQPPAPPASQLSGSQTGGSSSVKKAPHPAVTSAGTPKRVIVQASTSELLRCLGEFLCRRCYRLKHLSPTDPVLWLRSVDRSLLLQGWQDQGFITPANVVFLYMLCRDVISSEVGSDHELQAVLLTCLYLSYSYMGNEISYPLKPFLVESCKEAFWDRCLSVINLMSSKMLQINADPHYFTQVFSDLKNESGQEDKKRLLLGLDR
SMILES,IC50 [1],IC50 [2],CDK5/CDK2 specificity [1]
"CN1CCC(S(=O)(=O)c2ccc3cnc(Nc4ccc(-n5cccn5)cc4F)cc3n2)CC1 [Compound 158, N-[2-fluoro-4-(pyrazol-1-yl)phenyl]-2-(1-methylpiperidin-4-ylsulfonyl)-1,6-naphthyridin-7-amine]",< 10 nM,100 to 1000 nM,+++ (greater than 100-fold more active against CDK5 than CDK2)
CN1CCC(S(=O)(=O)c2ccc3cnc(Nc4ccc(Cn5cncn5)cc4)cc3n2)CC1 [Compound 263],< 10 nM,10 to 100 nM,++ (greater than 10-fold and less than or equal to 100-fold more active against CDK5 than CDK2)
CN1CCC(S(=O)(=O)c2ccc3cnc(Nc4ccccc4N4CCOCC4)cc3n2)CC1 [Compound 266],> 1000 nM,> 1000 nM,++ (greater than 10-fold and less than or equal to 100-fold more active against CDK5 than CDK2)
"OCCN(c1ccc2cnc(Nc3ccc(-n4ccc(CO)n4)cc3F)cc2n1)C1CCNCC1 [Compound 105, 2-[[7-([2-fluoro-4-[3-(hydroxymethyl)pyrazol-1-yl]phenyl]amino)-1,6-naphthyridin-2-yl](piperidin-4-yl)amino]ethanol]",10 to 100 nM,100 to 1000 nM,++ (greater than 10-fold and less than or equal to 100-fold more active against CDK5 than CDK2)
"NC1CCCN(C(=O)c2ccc3cnc(Nc4ccc(-n5cccn5)cc4F)cc3n2)C1 (stereo not drawn) [Compound 242, 2-(3-aminopiperidine-1-carbonyl)-N-[2-fluoro-4-(pyrazol-1-yl)phenyl]-1,6-naphthyridin-7-amine]",100 to 1000 nM,> 1000 nM,++ (greater than 10-fold and less than or equal to 100-fold more active against CDK5 than CDK2)
"CN1CCC(C2(c3ccc4cnc(Nc5ccc(-n6ccc(CO)n6)cc5F)cc4n3)CC2)CC1 [Compound 312, [1-[3-fluoro-4-([2-[1-(1-methylpiperidin-4-yl)cyclopropyl]-1,6-naphthyridin-7-yl]amino)phenyl]pyrazol-3-yl]methanol]",10 to 100 nM,> 1000 nM,++ (greater than 10-fold and less than or equal to 100-fold more active against CDK5 than CDK2)
"CN[C@H]1CC[C@@H](N(CC(=O)O)c2ccc3cnc(Nc4ccc(-n5cccn5)cc4F)cc3n2)CC1 [Compound 155, [(7-[[2-fluoro-4-(pyrazol-1-yl)phenyl]amino]-1,6-naphthyridin-2-yl)[(1s,4s)-4-(methylamino)cyclohexyl]amino]acetic acid]",100 to 1000 nM,> 1000 nM,++ (greater than 10-fold and less than or equal to 100-fold more active against CDK5 than CDK2)

# Continued, in another order:
IC50 [1],IC50 [2],SMILES,CDK5/CDK2 specificity [1]
< 10 nM,100 to 1000 nM,"CC(O)(c1ccc2cnc(Nc3ccc(-n4cccn4)cc3F)cc2n1)C1CCNCC1 (stereo not drawn) [Compound 196, 1-(7-[[2-fluoro-4-(pyrazol-1-yl)phenyl]amino]-1,6-naphthyridin-2-yl)-1-(piperidin-4-yl)ethanol]",++ (greater than 10-fold and less than or equal to 100-fold more active against CDK5 than CDK2)
> 1000 nM,> 1000 nM,CN1CCC(S(=O)(=O)c2ccc3cnc(Nc4cnc5ccc(Cl)nn45)cc3n2)CC1 [Compound 286],+ (10-fold or less more active against CDK5 than CDK2)
< 10 nM,10 to 100 nM,CN1CCC(C(C)(O)c2ccc3cnc(Nc4ccc(-c5cccc(=O)[nH]5)cc4F)cc3n2)CC1 (stereo not drawn) [Compound 393],++ (greater than 10-fold and less than or equal to 100-fold more active against CDK5 than CDK2)
< 10 nM,10 to 100 nM,CN1CCC(C(C)(O)c2ccc3cnc(Nc4ccc(-c5cccc(C#N)c5)cc4F)cc3n2)CC1 (stereo not drawn) [Compound 335],++ (greater than 10-fold and less than or equal to 100-fold more active against CDK5 than CDK2)
10 to 100 nM,> 1000 nM,COc1cc(-c2ccc(Nc3cc4nc(C(C)C5CCN(C)CC5)ccc4cn3)c(F)c2)ccn1 (stereo not drawn) [Compound 339],++ (greater than 10-fold and less than or equal to 100-fold more active against CDK5 than CDK2)
